Laboratory results taken from patent EP1282604B1, “SUBSTITUTED CAPROLACTAM CARBONATES AND ETHERS AND THEIR USE AS ANTI-TUMOR AGENTS” (Novartis AG, priority 2000, dated 2001).

Columns and labels:
[1] = test system: MDA-MB-435 human breast carcinoma; test: Anchorage Dependent Growth Monolayer Assay (ADGMA), MTS readout; type: cell-based; details: Homo sapiens, 72 h; 3-day exposure, MDA-MB-435 cells; read-out: IC50 values (average ± S.D.) MDA-MB-435
Source text: (§1) As indicated above, all of the compounds of formula I, and their corresponding pharmaceutically acceptable acid addition salts, are anti-tumor agents and are, therefore, useful in inhibiting the growth of various lymphomas, sarcomas, carcinomas, myelomas, and leukemia cell lines. […] This assay was adapted from the 60 cell line assay used by the National Cancer Institute (NCl) with the following modifications: 1) cell lines representative for the important tumor types, viz., MDA-MB-435 human breast, A549 non-small cell lung, H1299 lung, HCT-116 colon and PC-3 prostate carcinomas, and U2OS osteosarcomas were utilized; and 2) a tetrazolium derivative, viz., 3-(4,5-dimethylthiazol-2-yl)-5-(3-carboxymethoxyphenyl)-2-(4-sulfophenyl)-2H-tetrazolium, inner salt (MTS), was utilized to determine cell density.
(§2) The ADGMA compares the number of viable cells following a 3-day exposure to a test compound relative to a number of cells present at the time the test compound was added. […] The absorbance at 490 nm (A490) of the formazan derivative is proportional to the number of viable cells. The IC50 for a test compound is the concentration of compound required to reduce the final cell number to 50% of the final control cell number. If cell proliferation is inhibited, the assay further defines compounds as cytostatic (cell number after 3-day compound incubation >cell number at time of compound addition) or cytotoxic (cell number after 3-day compound incubation <cell number at time of compound addition).
(§3) The MDA-MB-435 human breast carcinoma and the A549 non-small cell lung carcinoma lines were obtained from the American Type Culture Collection (ATCC) and used between passages 4-20 following thawing. MDA-MB-435 human breast carcinoma and A549 non-small cell lung carcinoma cells were maintained and plated in DME/F12 medium containing 10% fetal bovine serum, 15 mM HEPES (pH=7.4), 100 units/mL penicillin, and 100 µg/mL streptomycin.
(§4) Cell lines are trypsinized and counted using a Coulter counter to determine plating densities. Cells are then plated in their respective maintenance media (100 µL/well) in 96 well plates at the following densities: MDA-MB-435 and U2OS, 3,000 cells/well; A549 and HCT-116, 700 cells/well; H1299, 1,000 cells/well; and PC-3, 2500 cells/well. The number of cells plates as determined in preliminary experiments, results in cell densities of 75-90% of confluency by 4 days after plating. Initial cell densities, assayed one day after plating, are roughly 0.15-0.20 absorbance units greater than the media blank. Ninety-six well plates are seeded on day 0 and the test compounds are added on day 1. A control plate is created for each cell line that receives media only in row A and cells in row B. One day following plating, test compounds are added (in a final volume of 100 µL) to the test plates. Control plates receive 10 µL MTS mixture (prepared fresh on day of addition to cell plates at a ratio of 10 µL of a 0.92 mg/mL solution of PMS to a 190 µL of a 2 mg/mL solution of MTS) and 100 µL media. A490 of control plates is read 4 h after MTS addition to determine initial cell density values for each cell line. Three days after addition of test compound, 10 µL/well of MTS mixture is added to the test plates and A490 is read 4 h later. A490 values for wells containing cells are corrected for media absorbance, then normalized to initial density readings to determine percent net growth. IC50 values are determined from graphs of percent net growth as a function of compound concentration. Percent net growth is calculated as (Cell + Drug A490 - Initial A490/Cell + Drug Vehicle A490 - Initial A490) x 100%.

[2] = test system: A549 non-small cell lung carcinoma; test: as above; type: cell-based, human; details: Homo sapiens, 72 h; 3-day exposure, A549 cells; read-out: IC50 values (average ± S.D.) A549
Source text: as §1, §2, §3, §4

H1299 lung carcinoma = test: as above; type: cell-based; details: Homo sapiens, NCI-H1299, 72 h; 3-day exposure, H1299 cells; read-out: IC50 values (average ± S.D.) H1299
Source text: as §1, §2
(§5) The H1299 lung, HCT-116 colon, and PC-3 prostate carcinoma cell lines, and U2OS osteosarcoma cell line were obtained from the American Type Culture Collection (ATCC) and used between passages 4-20 following thawing. H1299 and HCT-116 cells were maintained in RPMI 1640 containing 10% FBS, 100 units/mL penicillin and 100 µg/mL streptomycin; PC-3 cells were maintained in Kahn's Modification containing 10% FBS, 100 units/mL penicillin and 100 µg/mL streptomycin; and U2OS cells were maintained in DMEM containing 10% FBS, 100 units/mL penicillin and 100 µg/mL streptomycin.
as §4

HCT-116 colon carcinoma = test: as above; type: cell-based; details: Homo sapiens, 72 h; 3-day exposure, HCT-116 cells; read-out: IC50 values (average ± S.D.) HCT-116
Source text: as §1, §2, §5, §4

PC-3 prostate carcinoma = test: as above; type: cell-based; details: Homo sapiens, 72 h; 3-day exposure, PC-3 cells; read-out: IC50 values (average ± S.D.) PC-3
Source text: as §1, §2, §5, §4

U2OS osteosarcoma = test: as above; type: cell-based; details: Homo sapiens, 72 h; 3-day exposure, U2OS cells; read-out: IC50 values (average ± S.D.) U2OS
Source text: as §1, §2, §5, §4

[3] = test system: MDA-MB-435 tumor xenografts; test: Human tumor xenograft growth inhibition in athymic nude mice; type: in vivo; details: 2 mg/kg iv, 3X/week for 3 weeks
Description: Utilizing this model, one can measure the ability of test compounds to inhibit the growth of human tumor xenografts growing subcutaneously (s.c.) in athymic nude mice. The histologic tumor type employed was MDA-MB-435 breast carcinoma for Ex.1 and 7 and A549 non-small cell lung carcinoma for Ex. 1-3.
MDA-MB-435 human breast carcinoma: Treatments were started 15 d post implantation (3 x 10^6 cells/mouse), when a mean tumor volume of approximately 45 mm^3 was reached. Ex.1 and 7 were administered iv at three times per week for 3 weeks (days 15, 17, 20, 22, 24, 27, 29, and 31), at 3.3, 10, and 33 µmol/kg. Doxorubicin was administered iv at 2 mg/kg using the same schedule. Each data point represents tumor growth (mean ± SEM), or body weight (mean), with an initial group size of n = 8, from a representative experiment performed twice. An asterisk (*) indicates p < 0.05 using a one-tailed Student's t-test.
Toxicity was monitored by recording average group body weights twice weekly, and by daily observation of general health. Efficacy was monitored by taking measurements of tumor length, width, and depth weekly using digital calipers coupled to automated data collectors. Mean tumor volume (MTV) at initiation of therapy was subtracted from final MTV in order to express the actual tumor growth during treatment (A MTV). Anti-tumor activity was expressed as %T/C (A MTV of treated group ÷ Δ MTV of control group X100%). Statistical significance was evaluated using a one-tailed Student's t-test (p<0.05).

| SMILES | IC50 [1] | IC50 [2] | IC50 (H1299 lung carcinoma) | IC50 (HCT-116 colon carcinoma) | IC50 (PC-3 prostate carcinoma) | IC50 (U2OS osteosarcoma) | Dead/Total [3] | Δ MTV [3] | %T/C ([3]; * = p<0.05) |
| --- | --- | --- | --- | --- | --- | --- | --- | --- | --- |
| CO[C@@H](C(=O)N[C@H]1CC[C@@H](OC(=O)OCc2ccccc2)CNC1=O)[C@H](O)[C@@H](O)[C@H](O)/C=C/C(C)(C)C [Ex. 4, (2R, 3R, 4S, 5R, 6E)-3,4,5-trihydroxy-2-methoxy-8,8-dimethyl-N-[(3S, 6R)-hexahydro-2-oxo-6-([[phenylmethoxy]carbonyl]oxy)-2H-azepin-3-yl]non-6-enonamide] | 130 ± 70 nM | 158 ± 16 nM | 170 ± 130 nM | 80 ± 10 nM | 80 nM | 250 ± 140 nM |  |  |  |
| COc1cccc2c1C(=O)c1c(O)c3c(c(O)c1C2=O)C[C@@](O)(C(=O)CO)C[C@@H]3O[C@H]1C[C@H](N)[C@H](O)[C@H](C)O1 [doxorubicin, reference compound] | 400 ± 10 nM | 500 ± 160 nM | 430 ± 290 nM | 80 ± 60 nM | 330 ± 120 nM | 130 ± 30 nM | 0/8 | 82 mm^3 | 46* % |
